Patent US20070092969A1, “Integrator system and method for rapidly determining effectiveness of a germicidal treatment” (priority 2005, published 2007)
Like-named read-outs stand apart in the source and are kept apart here.

System: biological indicators
Details: for Biological Indicator Results: STERRAD 50, 6 minutes contact, plasma 400 watts
Procedure: The biological indicator is placed into the sterilizer with the equipment to be sterilized. At the end of the sterilization process, the biological indicator is removed from the sterilizer, and the carrier is immersed in a sterile culture medium. The culture medium and carrier are incubated for a predetermined time at an appropriate temperature. At the end of the incubation period, it is determined whether any microorganisms have grown in the growth medium. If there is no growth of microorganisms in the growth medium, it is assumed that the equipment in the sterilizer has been properly sterilized. If microorganism growth is observed, the sterilization process was not effective, and the articles in the sterilizer are rejected for use. The growth of microorganisms is determined through a signal such as the generation of turbidity or a color change in a pH indicator due to a pH change from byproducts of cell growth in the medium. Biological indicators are described, for example, in U.S. Pat. Nos. 5,552,320 and 6,436,659, both of which are incorporated herein by reference in their entirety.
A series of integrators was prepared by contacting paper disks with an aqueous solution of arginine. The integrators were placed in a STERRAD® 50 sterilizer with a load of equipment to be sterilized and several biological indicators. The paper disks are absorbing substrates.
The sterilizer was evacuated to 0.8 torr. Plasma was produced in the chamber for 15 minutes to condition the load. The sterilizer was evacuated further to 0.4 torr, and hydrogen peroxide was injected and contacted with the load, integrators, and biological indicators for 6 minutes.
The sterilizer was vented with air for 2 minutes. The sterilizer was evacuated again to 0.5 torr, and plasma was produced for an additional 2 minutes. The plasma power was 400 watts for both plasma exposures.

## OO [Hydrogen Peroxide, hydrogen peroxide]
Hydrogen peroxide injection of 300 μL in the STERRAD 50 sterilizer
  Biological indicator (BI) result: negative
Hydrogen peroxide injection volume 100 μL
  Biological Indicator Results: 100% positive
Hydrogen peroxide injection volume 250 μL
  Biological Indicator Results: 40% positive
Hydrogen peroxide injection volume 400 μL
  Biological Indicator Results: 0% positive
Hydrogen peroxide injection volume 500 μL
  Biological Indicator Results: 0% positive
